Results on 34 compounds are retold here after patent US4315026A, “Alkylpolyoxysulfinyl and alkylpolythiosulfinyl derivatives of carbamate esters” (priority 1980, dated 1982).

Read-outs that look alike come from different tables or passages of the source. Where only a bound is given, the exact number is not on record here.

As usually defined, the LD50 is the dose expected to kill half of the subjects tested.

Data set [1] has as its system house flies, Musca domestica. Description: whole plant or invertebrate. It counts as in vivo. The following applies: read-out: House flies LD50.
Protocol: In another series of tests, stock 1% concentrated solutions of each of the test compounds of Table I below, and of the commercial related carbamate ester insecticides methomyl, carbofuran and oxamyl, were made in acetone, and such solutions were diluted with acetone to a concentration of 0.001-0.8%. House flies were treated topically on the notum by 1 μl of each of the diluted acetone solutions and percent mortality was counted 24 hours after application.
The nature of data set [2]: Mammalian toxicity, oral, Swiss white mice (LD50). The following applies: mouse, in vivo, propylene glycol carrier. The format is in vivo. As to the method:
For mice toxicity, the compound was dissolved in propyleneglycol or corn oil as a carrier and all compounds were tested at the level up to 1,000 mg/kg. All of the above noted compounds tested were lower in toxicity as compared with the parent compounds.
Mammalian toxicity was determined against Swiss white mice.

Setting [3] is: topical on the notum, 1 μl of 0.001-0.8% acetone solutions, 24 hours, 60° F.

With `CSC(C)=NOC(=O)N(C)S(=O)OCCOS(=O)N(C)C(=O)ON=C(C)SC` (stereo not shown) [Example I, N,N'-(1,2-ethanedioxysulfinyl)-bis (S-methyl N-methylcarbamoyloxy-thioacetimidate)], the LD50 worked out at 60 mg/kg in data set [1] (setting [3]) and 52 mg/kg in data set [2].

In the case of `CN(C(=O)Oc1cccc2c1OC(C)(C)C2)S(=O)OCCCOS(=O)N(C)C(=O)Oc1cccc2c1OC(C)(C)C2` (stereo not shown) [Example II, N,N'-(1,3-Propanedioxysulfinyl)-bis (2,3-dihydro-2,2-dimethylbenzofuranyl-7 methylcarbamate)], the 50% lethal dose (LD50) in data set [1] (topical, 24 h) turned out to be 17 mg/kg; in data set [2] it was 92 mg/kg.

Turning to `CSC(C)=NOC(=O)N(C)S(=O)OCC1COC(C)(C)O1` (stereo not shown) [Example III, S-methyl N-(2,2-dimethyl-1,3-dioxolane-5-yl-methoxysulfinyl)-N-methylcarbamoyloxythioacetimidate], the 50% lethal dose (LD50) in data set [1] (setting [3]) is 7 mg/kg; in data set [2], 84 mg/kg.

As for `CSC(C)=NOC(=O)N(C)[S+]([O-])SCCS[S+]([O-])N(C)C(=O)ON=C(C)SC` (stereo not shown) [Example VIII, N,N'-(1,2-Ethanedithiosulfinyl)-bis (S-methyl N-methylcarbamoyloxy thioacetimidate)], the LD50 in data set [1] (setting [3]) was 75 mg/kg; in data set [2], 250 mg/kg.

In the case of `CN(C(=O)Oc1cccc2c1OC(C)(C)C2)[S+]([O-])SCCS[S+]([O-])N(C)C(=O)Oc1cccc2c1OC(C)(C)C2` (stereo not shown) [IX], the LD50 was 36 mg/kg in data set [1] (topical, 24 h) and 87 mg/kg in data set [2].

Compound `CSC(C)=NOC(=O)N(C)S(=O)OC1COC(c2ccccc2)OC1` (stereo not shown) [X, S-Methyl N-(2-phenyl-1,3-dioxane-5-ylmethoxysulfinyl)N-methylcarbamoyloxythioacetimidate] returned an LD50 in data set [2] of 85 mg/kg.

For the compound `C=CCOCC(COS(=O)N(C)C(=O)ON=C(C)SC)OS(=O)N(C)C(=O)ON=C(C)SC` (stereo not shown) [XI, N,N'-(3-Allyloxy-1,2-propanedioxysulfinyl)-bis (S-methyl N-methylcarbamoyloxythioacetimidate)], the results for the LD50 in data set [1] (setting [3]) and in data set [2] were 40 mg/kg and 50 to 80 mg/kg, respectively.

In the case of `C=CCOC(COS(=O)N(C)C(=O)ON=C(C)SC)COS(=O)N(C)C(=O)ON=C(C)SC` (stereo not shown) [XII, N,N'-(2-Allyloxy-1,3-propanedioxysulfinyl)-bis (S-methyl N-methylcarbamoyloxythioacetimidate)], the LD50 in data set [1] (setting [3]) is less than 50 mg/kg; in data set [2], 88 mg/kg.

As for `CSC(C)=NOC(=O)N(C)S(=O)OCC(COCc1ccccc1)OS(=O)N(C)C(=O)ON=C(C)SC` (stereo not shown) [XIII, N,N'-(3-Benzyloxy-1,2-propanedioxysulfinyl)-bis (S-methyl N-methylcarbamoyloxythioacetimidate)], the LD50 in data set [1] (setting [3]) was less than 50 mg/kg; in data set [2], 50 to 100 mg/kg.

In the case of `CSC(C)=NOC(=O)N(C)S(=O)OCC(COC(C)C)OS(=O)N(C)C(=O)ON=C(C)SC` (stereo not shown) [XIV, N,N'-(3-Isopropoxy-1,2-propanedioxysulfinyl)-bis (S-methyl N-methylcarbamoyloxythioacetimidate)], the LD50 amounted to 81.5 mg/kg in data set [1] (setting [3]) and 170 mg/kg in data set [2].

Take `C=CCOCC(COS(=O)N(C)C(=O)Oc1cccc(C)c1)OS(=O)N(C)C(=O)Oc1cccc(C)c1` (stereo not shown) [XIX, N,N'-(3-Allyloxy-1,2-propanedioxysulfinyl)-bis (3-methylphenyl methylcarbamate)]: in data set [2], the LD50 was more than 1000 mg/kg.

The compound `CSC(C)=NOC(=O)N(C)S(=O)OCC(COS(=O)N(C)C(=O)ON=C(C)SC)OS(=O)N(C)C(=O)ON=C(C)SC` (stereo not shown) [XV, N,N',N",-(1,2,3-Propanetrioxysulfinyl)-tris (S-methyl N-methylcarbamoyloxythioacetimidate)] gave an LD50 in data set [2] of 50 to 100 mg/kg.

On to `CSC(C)=NOC(=O)N(C)S(=O)OCC12OCC3OC(C)(C)OC3C1OC(C)(C)O2` (stereo not drawn) [XVI, S-Methyl N-(2,3,4,5-di-O-isopropylidene-1-α-O-fructopyranosylsulfinyl)-N-methylcarbamoyloxythioacetimidate], for which the LD50 is 50 mg/kg in data set [1] (setting [3]) and 500 mg/kg in data set [2].

For the compound `CSC(C)=NOC(=O)N(C)S(=O)OC1C2OC(C)(C)OC2COC12COC(C)(C)O2` (stereo not shown) [XVII, S-Methyl N-(1,2,4,5-di-O-isopropylidene-3-O-fructopyranosylsulfinyl)-N-methylcarbamoyloxythioacetimidate], the LD50 in data set [1] (setting [3]) was found to be 115 mg/kg; in data set [2], 1000 mg/kg.

In data set [2], `Cc1cccc(OC(=O)N(C)S(=O)OCC2COC(C)(C)O2)c1` (stereo not shown) [XX, 3-Methylphenyl N-(2,2-dimethyl-1,3-dioxolane-5-ylmethoxysulfinyl)-N-methylcarbamate] gave a 50% lethal dose (LD50) of more than 1000 mg/kg.

In data set [2], `C=CCOC(COS(=O)N(C)C(=O)Oc1cccc(C)c1)COS(=O)N(C)C(=O)Oc1cccc(C)c1` (stereo not shown) [XXI, N,N'-(2-Allyloxy-1,3-propanedioxysulfinyl)-bis (3-methylphenyl methylcarbamate)] came in with an LD50 of more than 1000 mg/kg.

Compound `Cc1cccc(OC(=O)N(C)S(=O)OCC(COCc2ccccc2)OS(=O)N(C)C(=O)Oc2cccc(C)c2)c1` (stereo not shown) [XXII, N,N'-(3-Benzyloxy-1,2-propanedioxysulfinyl)-bis (3-methylphenyl methylcarbamate)] showed an LD50 in data set [2] of more than 1000 mg/kg.

With `Cc1cccc(OC(=O)N(C)S(=O)OCC(COC(C)C)OS(=O)N(C)C(=O)Oc2cccc(C)c2)c1` (stereo not shown) [XXIII, N,N'-(3-Isopropoxy-1,2-propanedioxysulfinyl)-bis (3-methyl-phenyl methylcarbamate)], the LD50 in data set [2] is more than 1000 mg/kg.

With `Cc1cccc(OC(=O)N(C)S(=O)OCC23OCC4OC(C)(C)OC4C2OC(C)(C)O3)c1` (stereo not drawn) [XXIV, 3-Methylphenyl N-(2,3,4,5-di-O-isopropylidene-1-α-O-fructopyranosylsulfinyl)-N-methylcarbamate], the LD50 in data set [2] is more than 1000 mg/kg.

With `C=CCOCC(COS(=O)N(C)C(=O)ON=C(SC)C(=O)N(C)C)OS(=O)N(C)C(=O)ON=C(SC)C(=O)N(C)C` (stereo not shown) [XXIX, N,N'-(3-Allyloxy-1,2-propanedioxysulfinyl)-bis[S-methyl N-methylcarbamoyloxy-2-(N',N'-dimethylamino)-2-oxoethanimidothioate]], the values for the LD50 in data set [1] (setting [3]) and in data set [2] were 215 mg/kg and 12.5 to 25 mg/kg, respectively.

In data set [2], `Cc1cccc(OC(=O)N(C)S(=O)OC2C3OC(C)(C)OC3COC23COC(C)(C)O3)c1` (stereo not shown) [XXV, 3-Methylphenyl N-(1,2,4,5-di-O-isopropylidene-3-O-fructopyranosylsulfinyl)-N-methylcarbamate] displayed an LD50 of more than 1000 mg/kg.

The compound `Cc1cccc(OC(=O)N(C)S(=O)OC2C(C3COC(C)(C)O3)OC3OC(C)(C)OC32)c1` (stereo not shown) [XXVI, 3-Methylphenyl N-(1,2,5,6-di-O-isopropylidene-3-O-glucofuranosylsulfinyl)-N-methylcarbamate] displayed an LD50 in data set [2] of more than 1000 mg/kg.

The compound `CSC(=NOC(=O)N(C)S(=O)OCC(COCc1ccccc1)OS(=O)N(C)C(=O)ON=C(SC)C(=O)N(C)C)C(=O)N(C)C` (stereo not shown) [XXXI, N,N'-(3-Benzyloxy-1,2-propanedioxysulfinyl)-bis-[S-methylcarbamoyloxy-2-(N',N'-dimethylamino)-2-oxoethanimidothioate]] showed an LD50 in data set [2] of 12.5 to 25 mg/kg.

`CSC(=NOC(=O)N(C)S(=O)OCC(COC(C)C)OS(=O)N(C)C(=O)ON=C(SC)C(=O)N(C)C)C(=O)N(C)C` (stereo not shown) [XXXII, N,N'-(3-Isopropoxy-1,2-propanedioxysulfinyl)-bis[S-methyl N-methylcarbamoyloxy-2-(N',N'-dimethylamino)-2-oxoethanimidothioate]] had an LD50 in data set [2] of 16 mg/kg.

In the case of `CC(C)OCC(COS(=O)N(C)C(=O)Oc1cccc2ccccc12)OS(=O)N(C)C(=O)Oc1cccc2ccccc12` (stereo not shown) [XXXIX, N,N'-(3-Isopropoxy-1,2-propanedioxysulfinyl)-bis(1-naphthyl methylcarbamate)], the LD50 in data set [2] was more than 1000 mg/kg.

In the case of `C=CCOCC(COS(=O)N(C)C(=O)Oc1cccc2ccccc12)OS(=O)N(C)C(=O)Oc1cccc2ccccc12` (stereo not shown) [XXXVI, N,N'-(3-Allyloxy-1,2-propanedioxysulfinyl)-bis(1-naphthyl methylcarbamate)], the LD50 in data set [2] was more than 1000 mg/kg.

On to `C=CCOC(COS(=O)N(C)C(=O)Oc1cccc2ccccc12)COS(=O)N(C)C(=O)Oc1cccc2ccccc12` (stereo not shown) [XXXVII, N,N'-(2-Allyloxy-1,3-propanedioxysulfinyl)-bis(1-naphthyl methylcarbamate)], for which the LD50 in data set [2] is more than 1000 mg/kg.

For the compound `CN(C(=O)Oc1cccc2ccccc12)S(=O)OCC(COCc1ccccc1)OS(=O)N(C)C(=O)Oc1cccc2ccccc12` (stereo not shown) [XXXVIII, N,N'-(3-Benzyloxy-1,2-propanedioxysulfinyl)-bis(1-naphthyl methylcarbamate)], the LD50 in data set [2] is more than 1000 mg/kg.

Compound `CN(C(=O)Oc1cccc2ccccc12)S(=O)OCC(COS(=O)N(C)C(=O)Oc1cccc2ccccc12)OS(=O)N(C)C(=O)Oc1cccc2ccccc12` (stereo not shown) [XXXX, N,N',N"-(1,2,3-Propanetrioxysulfinyl)-tris-(1-naphthyl methylcarbamate)] showed an LD50 in data set [2] of more than 1000 mg/kg.

`CN(C(=O)Oc1cccc2ccccc12)S(=O)OCC12OCC3OC(C)(C)OC3C1OC(C)(C)O2` (stereo not drawn) [XXXXI, 1-Naphthyl N-(2,3,4,5-di-O-isopropylidene-1-α-O-fructopyranosylsulfinyl)-N-methylcarbamate] returned an LD50 in data set [2] of more than 1000 mg/kg.

With `CN(C(=O)Oc1cccc2ccccc12)S(=O)OC1C2OC(C)(C)OC2COC12COC(C)(C)O2` (stereo not drawn) [XXXXII, 1-Naphthyl N-(1,2,4,5-di-O-isopropylidene-3-α-O-fructopyranosylsulfinyl)-N-methylcarbamate], the LD50 in data set [2] is more than 1000 mg/kg.

On to `CC(C)Oc1ccccc1OC(=O)N(C)S(=O)OCC(COS(=O)N(C)C(=O)Oc1ccccc1OC(C)C)OS(=O)N(C)C(=O)Oc1ccccc1OC(C)C` (stereo not shown) [XXXXIII, N,N',N"(1,2,3-Propanetrioxysulfinyl)-tris-(2-isopropoxyphenyl methylcarbamate)], for which the LD50 in data set [2] is more than 1000 mg/kg.

In turn, `CC(C)Oc1ccccc1OC(=O)N(C)S(=O)OCC12OCC3OC(C)(C)OC3C1OC(C)(C)O2` (stereo not drawn) [XXXXIV, 2-Isopropoxyphenyl N-(2,3,4,5-di-O-isopropylidene-1-α-O-fructopyranosylsulfinyl)-N-methylcarbamate] returned an LD50 in data set [2] of more than 1000 mg/kg.

For `CNC(=O)ON=C(C)SC` [methomyl, reference compound], the LD50 in data set [1] (setting [3]) came out at 3.7 mg/kg.
